Consider one compound from patent EP0115472A2, “Pyrrolidinon derivatives and process for their preparation” (CIBA-GEIGY AG, priority 1983, dated 1984).

The subject of this test is Mäusen. Nature of the test: step down passive avoidance test (improvement of memory performance). Format: in vivo, Mäuse. The settings on record: Mus musculus, ip; mice, i.p. within 10 s after foot shock; retest after 24 h; compared with solvent controls; read-out: Dosis, bei der sich eine Verbesserung der Gedächtnisleistung zeigen lässt. The source says: Zur unmittelbaren Messung der Verbesserung der Gedächtnisleistung wird ein anderer passiver Vermeidungstest (step down passive avoidance test, Psychopharmacol. 63, 297-300 [1979]) verwendet: • Die Testvorrichtung besteht aus einer mit Tageslicht normal beleuchteten Box (50 x 50 x 50 cm) mit einem elektrisch leitenden Gitterrost, dessen Gitterstäbe (6 mm Durchmesser) in einem Abstand von jeweils 13 mm angeordnet sind. In der Mitte des Gitterrostes ist eine hölzerne Plattform (10 mm Höhe, 67 mm Durchmesser) angebracht, welche von einer Plastikröhre (20 cm hoch, 68 mm innerer Durchmesser) umgeben ist. Zur Durchführung des Trainings werden Gruppen von jeweils 30 männlichen Mäusen mit einem Körpergewicht von 20-22g verwendet, indem jeweils ein Tier auf die von der Plastikröhre umgebene Plattform gesetzt, nach 10 Sekunden die Plastikröhre entfernt und die Zeitdauer gemessen wird, welche das Tier zum Hinabsteigen und Berühren des Gitterrostes mit allen 4 Pfoten benötigt. Wenn alle 4 Pfoten den Gitterrost berühren, wird ein Fussschock (1 mA, 50 Hz, 1 Sekunde) verabreicht. Innerhalb von 10 Sekunden nach Verabreichung des Fussschocks werden die Testsubstanzen in Dosen von 3 mg/kg, 10 mg/kg und 30 mg/kg (für jede Dosis werden 30 Mäuse verwendet) als Lösung in physiologischer NaCl-Lösung oder deren Lösungsmittel (physiologische Natriumchloridlösung = Placebo) intraperitoneal verabreicht. […]

`NC(=O)CNC(=O)CNC(=O)CN1CCCC1=O` [N-[(2-Oxo-1-pyrrolidinyl)-acetyl]-glycyl-glycinamid]: the minimal effective dose amounted to 10 mg/kg.
